The results in this text go back to US10968178B2, “IP6K inhibitors” (TAKEDA PHARMACEUTICAL COMPANY LIMITED, priority 2017, dated 2021).

What all share (format): biochemical
The target in one test is T1, human IP6K1 (Homo sapiens, UniProt Q92551).
T1 construct: human IP6K1 (1-441) gene; GST; made in house; host or cells: Sf-9 insect cells
Nature of the test: IP6K enzyme inhibitory assay (ADP-Glo Kinase Assay), human IP6K1. Conditions: compound concentration 0.1 μM; read-out: ADP-Glo method inhibitory rate (%) human IP6K1. The procedure, abridged:
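Inhibition of human IP6K1 was determined with Promega's ADP-Glo Kinase Assay in 384 well plates. Test compound diluted in assay buffer (20 mM HEPES (pH 7.5), 6 mM MgCl2, 0.01% Tween-20, 1 mM DTT) was added at 2 μL, then 2 μL of enzyme started the reaction for 60 min at room temperature. Next came 3 μL ADP-Glo solution for 30 min and 6 μL Kinase-Detection solution for 60 min. Luminescence was read on an Envision plate reader.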

The target of the next test is T2, human IP6K2 (Homo sapiens, UniProt Q9UHH9).
T2 construct: human IP6K2 (1-426) gene; GST; made in house; host or cells: Sf-9 insect cells
T2 sequence (Q9UHH9 1-426): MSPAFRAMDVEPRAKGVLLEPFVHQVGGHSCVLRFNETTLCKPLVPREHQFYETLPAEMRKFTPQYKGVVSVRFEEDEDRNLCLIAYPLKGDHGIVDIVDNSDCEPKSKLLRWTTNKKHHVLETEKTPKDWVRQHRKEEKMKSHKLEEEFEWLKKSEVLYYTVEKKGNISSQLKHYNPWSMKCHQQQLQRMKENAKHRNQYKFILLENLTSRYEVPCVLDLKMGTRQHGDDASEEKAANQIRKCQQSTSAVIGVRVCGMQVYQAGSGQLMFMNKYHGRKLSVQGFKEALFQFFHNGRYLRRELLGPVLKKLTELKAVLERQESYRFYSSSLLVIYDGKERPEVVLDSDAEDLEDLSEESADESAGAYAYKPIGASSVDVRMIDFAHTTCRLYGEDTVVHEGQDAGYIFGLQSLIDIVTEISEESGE
Nature of the test: IP6K enzyme inhibitory assay (ADP-Glo Kinase Assay), human IP6K2. Conditions: compound concentration 0.1 μM; read-out: ADP-Glo method inhibitory rate (%) human IP6K2. The procedure, abridged: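 The inhibitory activity against human IP6K2 was measured with Promega's ADP-Glo Kinase Assay in 384 well plates. Test compound, diluted in assay buffer (20 mM HEPES (pH 7.5), 6 mM MgCl2, 0.01% Tween-20, 1 mM DTT), was added at 2 μL. Adding 2 μL of diluted enzyme started the reaction, which ran for 60 min at room temperature. Next, 3 μL ADP-Glo solution (30 min) and 6 μL Kinase-Detection solution (60 min) were added, and luminescence was read on an Envision plate reader.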
Background: In ADP-Glo the light output rises with the ADP produced.

The target in the next test is T3, human IP6K3 (Homo sapiens, UniProt Q96PC2).
T3 construct: human IP6K3 (1-410) gene; made in house; host or cells: BL21 (DE3) Escherichia coli
T3 sequence (Q96PC2 1-410): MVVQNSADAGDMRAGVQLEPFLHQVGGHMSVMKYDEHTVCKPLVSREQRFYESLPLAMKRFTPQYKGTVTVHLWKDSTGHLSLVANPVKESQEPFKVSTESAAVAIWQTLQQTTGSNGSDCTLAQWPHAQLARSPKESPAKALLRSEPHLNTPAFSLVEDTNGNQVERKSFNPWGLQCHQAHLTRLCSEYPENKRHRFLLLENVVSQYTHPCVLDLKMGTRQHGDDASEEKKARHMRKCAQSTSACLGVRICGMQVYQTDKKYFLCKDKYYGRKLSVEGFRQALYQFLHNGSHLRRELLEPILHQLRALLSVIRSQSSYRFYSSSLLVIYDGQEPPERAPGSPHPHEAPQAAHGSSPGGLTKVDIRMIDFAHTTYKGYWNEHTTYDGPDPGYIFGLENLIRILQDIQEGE
Nature of the test: IP6K enzyme inhibitory assay (ADP-Glo Kinase Assay), human IP6K3. The settings on record: compound concentration 0.1 μM; read-out: ADP-Glo method inhibitory rate (%) human IP6K3. The procedure, abridged:
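Recombinant human IP6K (IP6K3 residues 1-410, E. coli, Ni-NTA purified) incubated with compound in 20 mM HEPES pH 7.5, 6 mM MgCl2, 0.01% Tween-20, 1 mM DTT for 60 min at room temperature. ADP formed read as luminescence by ADP-Glo.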

SMILES strings stand for the structures.

T1 sequence (Q92551 whole entry): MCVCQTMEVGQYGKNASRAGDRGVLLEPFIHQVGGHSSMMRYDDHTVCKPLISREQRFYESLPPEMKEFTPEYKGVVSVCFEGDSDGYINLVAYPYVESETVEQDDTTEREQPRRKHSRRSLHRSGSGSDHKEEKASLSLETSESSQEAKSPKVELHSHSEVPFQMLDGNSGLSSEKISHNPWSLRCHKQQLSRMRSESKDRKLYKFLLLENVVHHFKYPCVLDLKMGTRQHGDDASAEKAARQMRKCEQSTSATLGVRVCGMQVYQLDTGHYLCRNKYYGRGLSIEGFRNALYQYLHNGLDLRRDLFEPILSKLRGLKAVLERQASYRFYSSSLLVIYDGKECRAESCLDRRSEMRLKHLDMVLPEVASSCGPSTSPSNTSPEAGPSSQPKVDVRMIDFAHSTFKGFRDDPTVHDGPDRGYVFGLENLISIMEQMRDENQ

Consider `O=C(O)c1ccc2c(n1)[C@]1(CC[C@H](Oc3ccc(F)cc3F)CC1)C(=O)N2` [Example 84, (1s,4s)-4-(2,4-difluorophenoxy)-2′-oxo-1′,2′-dihydrospiro[cyclohexane-1,3′-pyrrolo[3,2-b]pyridine]-5′-carboxylic acid], for which the results for the inhibition at 0.1 µM on human IP6K1, at human IP6K2 and at human IP6K3 were 75%, 59% and 91%, respectively.

As for `O=C(O)c1ccc2c(n1)[C@]1(CC[C@H](Oc3ccccc3Cl)CC1)C(=O)N2` [Example 85, (1s,4s)-4-(2-chlorophenoxy)-2′-oxo-1′,2′-dihydrospiro[cyclohexane-1,3′-pyrrolo[3,2-b]pyridine]-5′-carboxylic acid], the inhibition at 0.1 µM on human IP6K1 was found to be 81%; at human IP6K2, 71%; on human IP6K3 it was 95%.

With `O=C(O)c1ccc2c(n1)[C@]1(CC[C@H](Oc3c(F)cc(Cl)cc3F)CC1)C(=O)N2` [Example 86, (1s,4s)-4-(4-chloro-2,6-difluorophenoxy)-2′-oxo-1′,2′-dihydrospiro[cyclohexane-1,3′-pyrrolo[3,2-b]pyridine]-5′-carboxylic acid], the inhibition at 0.1 µM at human IP6K1 worked out at 55%; on human IP6K2 it was 50%; at human IP6K3 it was 80%.

In the case of `O=C(O)c1ccc2c(c1)[C@]1(CC[C@H](Oc3ncc(Cl)cc3F)CC1)C(=O)N2` [Example 87, (1s,4s)-4-((5-chloro-3-fluoropyridin-2-yl)oxy)-2′-oxo-1′,2′-dihydrospiro[cyclohexane-1,3′-indole]-5′-carboxylic acid], the results for the inhibition at 0.1 µM at human IP6K1, at human IP6K2 and at human IP6K3 were 107%, 102% and 102%, respectively.

On to `O=C(O)c1ccc2c(n1)[C@]1(CC[C@H](Oc3ccc(Cl)cc3)CC1)C(=O)N2` [Example 88, (1s,4s)-4-(4-chlorophenoxy)-2′-oxo-1′,2′-dihydrospiro[cyclohexane-1,3′-pyrrolo[3,2-b]pyridine]-5′-carboxylic acid], for which the inhibition at 0.1 µM amounted to 101% on human IP6K1, 97% on human IP6K2 and 97% on human IP6K3.

Consider `Cc1cc(Cl)cc(C)c1O[C@H]1CC[C@]2(CC1)C(=O)Nc1ccc(C(=O)O)nc12` [Example 89, (1s,4s)-4-(4-chloro-2,6-dimethylphenoxy)-2′-oxo-1′,2′-dihydrospiro[cyclohexane-1,3′-pyrrolo[3,2-b]pyridine]-5′-carboxylic acid], for which the inhibition at 0.1 µM came out at 9% on human IP6K1, 14% on human IP6K2 and 26% at human IP6K3.

Turning to `O=C(O)c1ccc2c(n1)[C@]1(CC[C@@H](Oc3ccccc3Cl)CC1)C(=O)N2` [Example 90, (1r,4r)-4-(2-chlorophenoxy)-2′-oxo-1′,2′-dihydrospiro[cyclohexane-1,3′-pyrrolo[3,2-b]pyridine]-5′-carboxylic acid], the inhibition at 0.1 µM amounted to 49% on human IP6K1, 47% on human IP6K2 and 61% at human IP6K3.

On to `O=C(O)c1ccc2c(n1)[C@]1(CC[C@@H](Oc3ccc(F)cc3F)CC1)C(=O)N2` [Example 91, (1r,4r)-4-(2,4-difluorophenoxy)-2′-oxo-1′,2′-dihydrospiro[cyclohexane-1,3′-pyrrolo[3,2-b]pyridine]-5′-carboxylic acid], for which the inhibition at 0.1 µM at human IP6K1 came to 69%; on human IP6K2, 60%; at human IP6K3, 79%.

With `O=C(O)c1ccc2c(n1)[C@]1(CC[C@@H](Oc3ccc(Cl)cc3)CC1)C(=O)N2` [Example 92, (1r,4r)-4-(4-chlorophenoxy)-2′-oxo-1′,2′-dihydrospiro[cyclohexane-1,3′-pyrrolo[3,2-b]pyridine]-5′-carboxylic acid], the inhibition at 0.1 µM was 97% at human IP6K1, 92% on human IP6K2 and 98% on human IP6K3.

With `O=C(O)c1ccc2c(n1)[C@]1(CC[C@@H](Oc3c(F)cc(Cl)cc3F)CC1)C(=O)N2` [Example 93, (1r,4r)-4-(4-chloro-2,6-difluorophenoxy)-2′-oxo-1′,2′-dihydrospiro[cyclohexane-1,3′-pyrrolo[3,2-b]pyridine]-5′-carboxylic acid], the inhibition at 0.1 µM turned out to be 92% at human IP6K1, 96% at human IP6K2 and 101% on human IP6K3.

`Cc1cc(Cl)cc(C)c1O[C@H]1CC[C@@]2(CC1)C(=O)Nc1ccc(C(=O)O)nc12` [Example 94, (1r,4r)-4-(4-chloro-2,6-dimethylphenoxy)-2′-oxo-1′,2′-dihydrospiro[cyclohexane-1,3′-pyrrolo[3,2-b]pyridine]-5′-carboxylic acid]: the results for the inhibition at 0.1 µM at human IP6K1, on human IP6K2 and on human IP6K3 were 91%, 97% and 101%, respectively.

Consider `O=C(O)c1ccc2c(n1)[C@]1(CC[C@@H](Oc3ccc(Cl)cc3C(F)(F)F)CC1)C(=O)N2` [Example 95, (1r,4r)-4-(4-chloro-2-(trifluoromethyl)phenoxy)-2′-oxo-1′,2′-dihydrospiro[cyclohexane-1,3′-pyrrolo[3,2-b]pyridine]-5′-carboxylic acid], for which the inhibition at 0.1 µM was 88% at human IP6K1, 91% on human IP6K2 and 96% on human IP6K3.

In the case of `O=C(O)c1ccc2c(n1)[C@]1(CC[C@H](Oc3ccc(Cl)cc3C(F)(F)F)CC1)C(=O)N2` [Example 96, (1s,4s)-4-(4-chloro-2-(trifluoromethyl)phenoxy)-2′-oxo-1′,2′-dihydrospiro[cyclohexane-1,3′-pyrrolo[3,2-b]pyridine]-5′-carboxylic acid], the inhibition at 0.1 µM on human IP6K1 was 95%; at human IP6K2, 99%; at human IP6K3, 101%.

Consider `O=C(O)c1ccc2c(n1)[C@]1(CC[C@@H](Oc3ncc(Cl)cc3C(F)(F)F)CC1)C(=O)N2` [Example 99, (1r,4r)-4-((5-chloro-3-(trifluoromethyl)pyridin-2-yl)oxy)-2′-oxo-1′,2′-dihydrospiro[cyclohexane-1,3′-pyrrolo[3,2-b]pyridine]-5′-carboxylic acid], for which the results for the inhibition at 0.1 µM on human IP6K1, on human IP6K2 and at human IP6K3 were 51%, 64% and 83%, respectively.

Regarding `O=C(O)c1ccc2c(n1)[C@]1(CC[C@H](Oc3ncc(Cl)cc3F)CC1)C(=O)N2` [Example 100, (1s,4s)-4-((5-chloro-3-fluoropyridin-2-yl)oxy)-2′-oxo-1′,2′-dihydrospiro[cyclohexane-1,3′-pyrrolo[3,2-b]pyridine]-5′-carboxylic acid], the inhibition at 0.1 µM at human IP6K1 was 76%; at human IP6K2 it was 98%; at human IP6K3, 97%.

With `O=C(O)c1ccc2c(n1)[C@]1(CC[C@H](Oc3ccc(Cl)cc3Cl)CC1)C(=O)N2` [Example 101, (1s,4s)-4-(2,4-dichlorophenoxy)-2′-oxo-1′,2′-dihydrospiro[cyclohexane-1,3′-pyrrolo[3,2-b]pyridine]-5′-carboxylic acid], the inhibition at 0.1 µM on human IP6K1 worked out at 104%; on human IP6K2, 100%; on human IP6K3 it was 98%.

Consider `O=C(O)c1ccc2c(n1)[C@]1(CC[C@@H](Oc3ccc(Cl)cc3Cl)CC1)C(=O)N2` [Example 102, (1r,4r)-4-(2,4-dichlorophenoxy)-2′-oxo-1′,2′-dihydrospiro[cyclohexane-1,3′-pyrrolo[3,2-b]pyridine]-5′-carboxylic acid], for which the inhibition at 0.1 µM on human IP6K1 was determined as 105%; at human IP6K2 it was 94%; on human IP6K3, 97%.
